Test results: ChEMBL document CHEMBL1156755, “Discovery of (Z)-5-(4-methoxybenzylidene)thiazolidine-2,4-dione, a readily available and orally active glitazone for the treatment of concanavalin A-induced acute liver injury of BALB/c mice” (J Med Chem, 2010)
The source made the active and inactive calls. The rule behind the calls is not given here.

How the values were obtained:
RAW264.7 [1] = experiment: Inhibition of MCP1-induced chemotaxis in mouse RAW264.7 cells at 25 ug/mL relative to control; format: functional
RAW264.7 [2] = experiment: Inhibition of MCP1-induced chemotaxis in mouse RAW264.7 cells; format: functional, cell-based
Mus musculus [3] = experiment: Effect on serum aspartate aminotransaminase level in concanavalin A-induced acute hepatitis model of BALB/c mouse at 50 mg/kg, po treated 0.5 hrs after concanavalin A challenge measured after 20 hrs (Rvb= 4997.9 +/- 2619.6); format: functional
Mus musculus [4] = experiment: Decrease in concanavalin A-induced hepatic cell necrosis in acute hepatitis model of BALB/c mouse at 50 mg/kg, ig treated 0.5 hrs after concanavalin A challenge measured after 20 hrs by H and E staining based histopathology study; format: functional, organism-based; design: dose 50 mg/kg
Mus musculus [5] = experiment: Effect on serum alanine aminotransaminase level in concanavalin A-induced acute hepatitis model of BALB/c mouse at 50 mg/kg, po treated 0.5 hrs after concanavalin A challenge measured after 20 hrs (Rvb= 5734.5 +/- 2599.5); format: functional
[6] = Half life in BALB/c mouse at 30 mg/kg, po; format: ADME, organism-based; design: dose 30 mg/kg, route oral; details: in vivo
Mus musculus [7] = experiment: Toxicity in BALB/c mouse assessed as pathological changes in kidney at 50 mg/kg, ig after 20 hrs by H and E staining based histopathology study; format: organism-based; design: dose 50 mg/kg, route intragastric; details: in vivo, po
Mus musculus [8] = experiment: Toxicity in BALB/c mouse liver assessed as change in transaminase level at 50 mg/kg, ig after 20 hrs by H and E staining based histopathology study; format: organism-based; design: dose 50 mg/kg, route intragastric; details: in vivo, po
[9] = Oral bioavailability in BALB/c mouse at 30 mg/kg; format: ADME, organism-based; details: in vivo
[10] = Tmax in BALB/c mouse at 30 mg/kg, po; format: ADME, organism-based; design: dose 30 mg/kg, route oral; details: in vivo
Mus musculus [11] = experiment: Toxicity in BALB/c mouse assessed as pathological changes in spleen at 50 mg/kg, ig after 20 hrs by H and E staining based histopathology study; format: organism-based; design: dose 50 mg/kg, route intragastric; details: in vivo, po
Mus musculus [12] = experiment: Plasma concentration in BALB/c mouse at 30 mg/kg, po; format: ADME, organism-based; design: dose 30 mg/kg, route oral; details: in vivo
Mus musculus [13] = experiment: Toxicity in BALB/c mouse assessed as pathological changes in liver at 50 mg/kg, ig after 20 hrs by H and E staining based histopathology study; format: organism-based; design: dose 50 mg/kg, route intragastric; details: in vivo, po
Mus musculus [14] = experiment: Toxicity in BALB/c mouse assessed as pathological changes in heart at 50 mg/kg, ig after 20 hrs by H and E staining based histopathology study; format: organism-based; design: dose 50 mg/kg, route intragastric; details: in vivo, po
Mus musculus [15] = experiment: Toxicity in BALB/c mouse assessed as pathological changes in lung at 50 mg/kg, ig after 20 hrs by H and E staining based histopathology study; format: organism-based; design: dose 50 mg/kg, route intragastric; details: in vivo, po

| Structure (SMILES) | inhibition at 25 µg/mL (RAW264.7 [1]) [%] | further results |
| --- | --- | --- |
| COc1ccc(/C=C2\SC(=N)NC2=O)cc1OC | 9.4 | – |
| O=C1NC(=O)/C(=C/c2ccc(Br)cc2)S1 | 16.9 | – |
| COc1ccc(C=C2C(=O)NC(=O)NC2=O)cc1OC | 14.2 | – |
| COc1ccc(C=C2C(=O)NC(=S)NC2=O)cc1 | 27.4 | IC50 (RAW264.7 [2]): 11.2 µM; Activity (Mus musculus [3]): 2109.7 U/L; Activity (Mus musculus [4]): Active; Activity (Mus musculus [5]): 3141.2 U/L |
| O=C1C/C(=C\c2ccc(O)cc2)C(=O)N1 | 8.4 | – |
| COc1cc(/C=C2\CC(=O)NC2=O)ccc1O | 39.5 | IC50 (RAW264.7 [2]): 20.5 µM; Activity (Mus musculus [3]): 3126.9 U/L; Activity (Mus musculus [5]): 3304.1 U/L |
| O=C1NC(=O)/C(=C/c2ccc(O)cc2)S1 | 25.1 | – |
| COc1ccc(/C=C2\CC(=O)NC2=O)cc1 | 13.3 | – |
| COc1cc(C=C2C(=O)NC(=S)NC2=O)ccc1O | 14.4 | – |
| O=C1NC(=O)/C(=C/c2ccc(O)cc2)N1 [4-HYDROXYPHENYLMETHYLENE HYDANTOIN] | 13 | – |
| O=C1NC(=S)NC(=O)C1=Cc1ccc(Br)cc1 | 4.3 | – |
| COc1cc(/C=C2\NC(=O)NC2=O)ccc1O | 16.6 | – |
| O=C1NC(=O)/C(=C/c2cccc(O)c2)S1 | 14.4 | – |
| CN(C)c1ccc(/C=C2\CC(=O)NC2=O)cc1 | 15.7 | – |
| O=C1C/C(=C\c2ccc(Cl)cc2)C(=O)N1 | 17.9 | – |
| O=C1C/C(=C\c2cccc(O)c2)C(=O)N1 | 11.4 | – |
| N=C1NC(=O)/C(=C/c2ccccc2)S1 | 10.1 | – |
| COc1ccc(/C=C2\NC(=O)NC2=O)cc1 | 19.9 | – |
| COc1ccc(C=C2C(=O)NC(=O)NC2=O)cc1 | 6.2 | – |
| CN(C)c1ccc(/C=C2\SC(=N)NC2=O)cc1 | 14 | – |
| O=C1NC(=O)C(=Cc2ccc(O)cc2)C(=O)N1 | 4.3 | – |
| COc1ccc(/C=C2\SC(=N)NC2=O)cc1 | 18.6 | – |
| O=C1NC(=O)/C(=C/c2cccc(O)c2)N1 | 4.4 | – |
| O=C1NC(=O)C(=Cc2ccccc2O)C(=O)N1 | 5.8 | – |
| CN(C)c1ccc(C=C2C(=O)NC(=O)NC2=O)cc1 | 6.2 | – |
| O=C1NC(=O)C(=Cc2cccc(O)c2)C(=O)N1 | 15 | – |

| Structure (SMILES) | inhibition at 25 µg/mL (RAW264.7 [1]) [%] | further results |
| --- | --- | --- |
| O=C1C/C(=C\c2ccccc2)C(=O)N1 | 5.7 | – |
| O=C1NC(=O)/C(=C/c2ccc(Br)cc2)N1 | 14 | – |
| O=C1NC(=O)/C(=C/c2ccccc2)S1 | 16.9 | – |
| N=C1NC(=O)/C(=C/c2ccc(Br)cc2)S1 | 16.6 | – |
| O=C1NC(=O)/C(=C/c2ccc3nccnc3c2)S1 | 36.9 | IC50 (RAW264.7 [2]): 5.31 µM; Activity (Mus musculus [3]): 1084.5 U/L; Activity (Mus musculus [5]): 1187.5 U/L |
| COc1cc(/C=C2\SC(=N)NC2=O)ccc1O | 19.9 | – |
| O=C1NC(=O)C(=Cc2ccc(Br)cc2)C(=O)N1 | 5.7 | – |
| COc1cc(/C=C2\SC(=O)NC2=O)ccc1O | 15.8 | – |
| O=C1NC(=S)NC(=O)C1=Cc1ccc(O)cc1 | 14.2 | – |
| O=C1NC(=O)C(=Cc2ccccc2)C(=O)N1 | 5.7 | – |
| O=C1NC(=O)C(=Cc2ccc(Cl)cc2)C(=O)N1 | 4.1 | – |
| CN(C)c1ccc(/C=C2\NC(=O)NC2=O)cc1 | 18.6 | – |
| N=C1NC(=O)/C(=C/c2ccc(Cl)cc2)S1 | 13 | – |
| COc1ccc(C=C2C(=O)NC(=S)NC2=O)cc1OC | 14.2 | – |
| O=C1NC(=S)NC(=O)C1=Cc1ccccc1O | 8.9 | – |
| O=C1NC(=S)NC(=O)C1=Cc1cccc(O)c1 | 5.7 | – |
| COc1ccc(/C=C2\NC(=O)NC2=O)cc1OC | 8.7 | – |
| COc1ccc(/C=C2\SC(=O)NC2=O)cc1 | 57.8 | half-life [6]: 3.37 h; Activity (Mus musculus [7]): Non-toxic; Activity (Mus musculus [8]): Non-toxic; bioavailability [9]: 14.9%; Tmax [10]: 0.5 h; IC50 (RAW264.7 [2]): 0.72 µM; Activity (Mus musculus [3]): 620 U/L; Activity (Mus musculus [11]): Non-toxic; Cp (Mus musculus [12]): 4980 ng/mL; Activity (Mus musculus [13]): Non-toxic; Activity (Mus musculus [4]): Active; Activity (Mus musculus [14]): Non-toxic; Activity (Mus musculus [15]): Non-toxic; Activity (Mus musculus [5]): 677.7 U/L |
| COc1ccc(/C=C2\SC(=O)NC2=O)cc1OC | 16.6 | – |
| O=C1C/C(=C\c2ccc(Br)cc2)C(=O)N1 | 14.3 | – |
| COc1cc(C=C2C(=O)NC(=O)NC2=O)ccc1O | 4.1 | – |
| CN(C)c1ccc(/C=C2\SC(=O)NC2=O)cc1 | 15.8 | – |
| O=C1NC(=S)NC(=O)C1=Cc1ccccc1 | 10.2 | – |
| CN(C)c1ccc(C=C2C(=O)NC(=S)NC2=O)cc1 | 35.7 | IC50 (RAW264.7 [2]): 7.2 µM; Activity (Mus musculus [3]): 2072.8 U/L; Activity (Mus musculus [4]): Active; Activity (Mus musculus [5]): 2930.2 U/L |
| N=C1NC(=O)/C(=C/c2ccc(O)cc2)S1 [MIRIN] | 4.4 | – |
| O=C1NC(=S)NC(=O)C1=Cc1ccc(Cl)cc1 | 4.1 | – |
